Measured values published in US20100111947A1, “PHARMACEUTICAL COMPOSITION COMPRISING ANTIBODY COMPOSITION WHICH SPECIFICALLY BINDS TO GANGLIOSIDE GM2” (KYOWA HAKKO KIRIN CO., LTD., priority 2008, published 2010).

Tested on: KMS-11 cells (human multiple myeloma cell)
Assay: Antitumor effect against KMS-11 cells transplanted subcutaneously into SCID mice (tumor volume V/V0, T/C)
Assay type: in vivo
Conditions: SCID mouse, KMS-11 xenograft, KM8969 1 mg/kg, L-PAM 3 mg/kg, tail vein
Experimental: Ten days after the cell transplantation, a diameter of a tumor was measured with calipers, and a tumor volume was calculated using the following formula.
(Formula) Tumor volume=short diameter×short diameter […]×0.5
Individuals having the tumor volume within the range of 140 to 184 mm^3 were selected, and grouped such that the average of tumor volume was to be almost the same. Each of following administration groups A to D was administered to the mice. Incidentally, the grouped day was defined as Day 0.
C. Group administering Melphalan (hereinafter referred to as L-PAM; Sigma) solely: 3 mg/kg was administered on Day 0 and Day 7.
With time, the tumor volume was measured. The antitumor effect was evaluated by comparing average values of a tumor volume change (V/V0) when the tumor volume on Day 0 in each group was defined as V0.

SMILES: N[C@@H](Cc1ccc(N(CCCl)CCCl)cc1)C(=O)O [L-PAM, Melphalan]
- T/C (V/V0 of group divided by V/V0 of negative control group) (Day 0): 1.0000
- T/C (V/V0 of group divided by V/V0 of negative control group) (Day 4): 0.8624
- T/C (V/V0 of group divided by V/V0 of negative control group) (Day 7): 0.8354
- T/C (V/V0 of group divided by V/V0 of negative control group) (Day 10): 0.6430
- T/C (V/V0 of group divided by V/V0 of negative control group) (Day 14): 0.5255
- T/C (V/V0 of group divided by V/V0 of negative control group) (Day 17): 0.4159
- T/C (V/V0 of group divided by V/V0 of negative control group) (Day 21): 0.2881
- T/C (V/V0 of group divided by V/V0 of negative control group) (Day 24): 0.2872
- T/C (V/V0 of group divided by V/V0 of negative control group) (Day 28): 0.2348
